For 85 molecules, IC50 results are on record in PubChem BioAssay AID489022 (Sanford-Burnham Center for Chemical Genomics, 2010).

The test system of this test is HEK-293T NF-kB luciferase reporter, luminescence counterscreen. Description: NF-kB reporter suppression in HEK-293T cells – luminescence, B-cell screen hits, counter-screen for BCR NF-kB inhibitor project, dose response (AID 489022).

SMILES strings stand for the structures. The source made the active and inactive calls. No rule for the calls is given here.

As for `COc1ccc(NS(=O)(=O)c2ccc(-c3coc(C)n3)cc2)cc1OC`, the IC50 was 0.66 µM.

As to `CCOC(=O)c1sc(NC(=O)c2cc(-c3ccccc3C)nc3ccccc23)c(C#N)c1C`, the IC50 is 0.29 µM.

As to `O=C(NNC(=O)C12CC3CC(CC(C3)C1)C2)c1cccc(O)c1`, the IC50 is > 80 µM (inactive).

`CCCN1C(=O)/C(=C/c2c(N3CCNC(=O)C3CC(=O)OCC)nc3c(C)cccn3c2=O)SC1=S` (stereo not given): the half-maximal inhibitory concentration (IC50) is 14.5 µM.

Turning to `CCNC(=O)CCc1nc(-c2ccc(C(C)(C)C)cc2)no1`, the IC50 was 34.9 µM (inactive).

For the molecule `CC1CCc2c(sc3nc(C(C)(C)C)nc(N4CCN(C(=O)CCl)CC4)c23)C1` (stereo not given), the IC50 was 30.6 µM (inactive).

Regarding `COc1cc(C2C(C#N)=C(N)Oc3cc(N)ccc32)cc(OC)c1OC` (stereo not given), the IC50 was > 80 µM (inactive).

Consider `NC(=S)N=Nc1c(O)n(Cc2ccccc2)c2ccccc12`, for which the IC50 was > 80 µM (inactive).

In the case of `CSc1ccc(-c2nc(CSCC(=O)NC3CC3)c(C)o2)cc1`, the IC50 was 37.7 µM (inactive).

With `Cc1ccc(C(=O)OCC(=O)N(CC(C)C)c2c(N)n(Cc3ccccc3)c(=O)[nH]c2=O)o1`, the IC50 is > 80 µM (inactive).

Take `CCOc1ccc(/C=C2\SC(=S)N(CCCC(=O)NCCCN3CCOCC3)C2=O)cc1`: the IC50 is > 80 µM (inactive).

Take `CN(CC1CCCO1)S(=O)(=O)c1ccc(C(=O)Nc2nc3cc4c(cc3s2)OCO4)cc1` (stereo not given): the IC50 was 0.36 µM.

As to `CCc1cccc(NC(=O)c2ccc(CNc3c(N4CCCC4)c(=O)c3=O)cc2)c1`, the IC50 was > 80 µM (inactive).

For the molecule `CCCCCOc1ccc(NC(=O)C(=O)NCCCn2ccnc2)cc1`, the IC50 was 42.8 µM (inactive).

Regarding `CN(C)CCCN=Cc1c(-c2ccccc2)[nH]n(-c2nc3ccccc3s2)c1=O`, the IC50 is > 80 µM (inactive).

On to `N=c1ccn2c(n1)OC1C(O)C(CO)OC12` (stereo not given), for which the IC50 is > 80 µM (inactive).

For the molecule `CCCS(=O)(=O)Nc1cccc(-c2ccc3nnc(C)n3n2)c1`, the IC50 is > 80 µM (inactive).

As for `CCOc1cc2nc(-c3ccc(OC)c(OC)c3)nc(N3CCOCC3)c2cc1OC`, the IC50 is 7.5 µM.

Take `COc1cc2c3c(c1)c(N=NC(N)=S)c(O)n3C(C)(C)C=C2C`: the IC50 was > 80 µM (inactive).

Regarding `CCN(CC)CCCN=Cc1c(-c2ccccc2)[nH]n(-c2nc3ccccc3s2)c1=O`, the IC50 is > 80 µM (inactive).

Consider `CCN1C(=O)c2cccc3c(S(=O)(=O)N4CCC(C)CC4)ccc1c23`, for which the IC50 is 17.5 µM.

For the molecule `Cc1nn(C)c(C)c1CN(C)S(=O)(=O)c1ccc2ccccc2c1`, the IC50 is 0.36 µM.

With `COc1cc(OC)c(/C=N/NC(N)=S)cc1Br`, the IC50 is > 80 µM (inactive).

Turning to `CC1CN(S(=O)(=O)c2ccc(C(=O)Nc3nc(-c4cc5ccccc5o4)cs3)cc2)CC(C)O1` (stereo not given), the IC50 was less than 0.16 µM.

For the molecule `CCOc1ccc(-c2nnc(SCC(=O)Nc3cc(C)on3)o2)cc1`, the IC50 is > 80 µM (inactive).

Consider `CCOC(=O)c1cc2c(=O)n3ccccc3nc2n(CC(C)C)c1=NC(=O)c1c(-c2c(F)cccc2Cl)noc1C`, for which the IC50 is 5.33 µM.

With `N=c1c2c(n(Cc3cccc(Cl)c3)c3c1CCC3)CCCC2`, the IC50 was 3.77 µM.

As for `Cc1nn(C(C)(C)C)c(C)c1/C=N/OC(=O)Nc1ccc(Cl)c(Cl)c1`, the IC50 was less than 0.16 µM.

For the molecule `Cc1ccc(-c2nn3c(C)nnc3c3ccccc23)cc1S(=O)(=O)NCCN1CCOCC1`, the IC50 was 32 µM (inactive).

Turning to `COc1cc(NC(=O)c2cc3c(C)nc4ccccc4c3o2)cc(OC)c1OC`, the IC50 was 18.4 µM.

`COc1cc(C[C@@H]2C(=O)OC[C@H]2Cc2ccc(OC)c(OC)c2)ccc1O`: the IC50 is 0.66 µM.

As for `O=C(CCCN1C(=O)/C(=C/c2ccccc2Cl)SC1=S)NNC(=O)c1ccccc1`, the IC50 is 21.8 µM (inactive).

Regarding `O=C(CCl)N1CCN(S(=O)(=O)c2ccc3c(c2)CCC3)CC1`, the IC50 is 41.9 µM (inactive).

Turning to `Cc1ccc(-c2nc(C(=O)NCC3CCCO3)cc3c2[nH]c2ccccc23)cc1` (stereo not given), the IC50 is 8.81 µM.

Regarding `Cc1nc2cc(-c3cccc(F)c3)nn2c(C)c1CCC(=O)N1CCC2(CC1)OCCO2`, the IC50 is 34 µM (inactive).

For `O=C(NNC(=O)C12CC3CC(CC(Br)(C3)C1)C2)c1ccccc1F`, the IC50 was > 80 µM (inactive).

Consider `COc1ccc(/C=C2/SC(=S)N(CCCC(=O)Nc3ccc(O)cc3)C2=O)cc1`, for which the IC50 is > 80 µM (inactive).

Take `CCC(=O)N(C1=C(NC)C(=O)c2ccccc2C1=O)C(C)C`: the IC50 was > 80 µM (inactive).

In the case of `Cc1ccc(C(=O)C[n+]2cc(-c3ccc(C)cc3)n3c2CCCCC3)cc1`, the IC50 is 4.44 µM.

As to `O=C(NNC(=O)c1ccccc1O)c1ccc(Cl)c(S(=O)(=O)N2CCc3ccccc32)c1`, the IC50 is 0.47 µM.

As for `CCN(CC)S(=O)(=O)c1ccc(N2CCOCC2)c(NC(=O)c2[nH]c(C)c(C(C)=O)c2C)c1`, the IC50 was 5.92 µM.

In the case of `CCC(C)[C@H](N)c1nnc(SCC(=O)c2ccc(Cl)cc2)o1` (stereo not given in full), the IC50 is > 80 µM (inactive).

Turning to `COc1ccc2nc(Sc3c([N+](=O)[O-])nc(C)n3Cc3ccccc3)[nH]c2c1`, the IC50 was 55.4 µM (inactive).

As for `COc1ccc(-c2ccc(C)cc2)cc1[C@H]1[C@H]2C=CC[C@@H](C)[C@@H]2C(=O)N1Cc1ccccc1`, the IC50 is 48.4 µM (inactive).

As for `N=c1ccn(Cc2c(Cl)cccc2Cl)cc1`, the IC50 is 14.1 µM.

Consider `CCSc1ncc(Cl)c(C(=O)Nc2sc3c(c2C(=O)NCc2cccnc2)CCCC3)n1`, for which the IC50 was > 80 µM (inactive).

For `CCn1c(=O)cc(SCC(=O)N2CCN(C(=O)c3ccco3)CC2)c2ccccc21`, the IC50 is 40.9 µM (inactive).

Turning to `CCn1c(=O)cc(SCC(=O)N2CCC3(CC2)OCCO3)c2ccccc21`, the IC50 is > 80 µM (inactive).

For the molecule `CCN1CCN(C(=O)CSc2cc(=O)n(CC)c3ccccc23)CC1`, the IC50 was > 80 µM (inactive).

On to `CC1Cc2ccccc2N1S(=O)(=O)c1cnc(Cl)c(Cl)c1` (stereo not given), for which the IC50 was 77.8 µM (inactive).

Turning to `Cc1ccoc1C(=O)Nc1ccc(CC(=O)O)cc1`, the 50% inhibitory concentration (IC50) was 14.2 µM.

As for `CCC(C)NC(=O)c1c(N)n(/N=C/c2ccccn2)c2nc3ccccc3nc12` (stereo not given), the IC50 is 34.8 µM (inactive).

On to `Cc1nc(Nc2c(Cl)cccc2Cl)sc1C(=O)Nc1ccccc1`, for which the IC50 is 33 µM (inactive).

Consider `COc1ccc(-c2ccc(C(C)=O)cc2)cc1[C@H]1[C@H]2C=CC[C@@H](C)[C@@H]2C(=O)N1Cc1ccccc1`, for which the IC50 was 14.2 µM.

As to `N=c1ccn2c(n1)O[C@H]1[C@H](O)[C@@H](CO)O[C@H]12`, the IC50 was > 80 µM (inactive).

Take `Cc1ccc(C(=O)CSc2nnc(COc3ccccc3)o2)cc1`: the IC50 was 40.9 µM (inactive).

Turning to `COc1ccc(-c2nn(C)c(=O)c3ccccc23)cc1NS(C)(=O)=O`, the IC50 was 43.9 µM (inactive).

As to `N#CC1=C(N)Oc2cc(Nc3ccccc3)ccc2C1c1ccncc1` (stereo not given), the IC50 is 6.15 µM.

As to `CC(C)c1ccc(/C=C2\SC(=S)N(CCC(=O)N3CCCCC3CCO)C2=O)cc1` (stereo not given), the IC50 was 17.5 µM.

In the case of `Cc1[nH]c2ccccc2c1C(=O)CN1C(=O)NC2(CC(C)CC(C)(C)C2)C1=O` (stereo not given), the IC50 was 43.3 µM (inactive).

Take `Cc1ccc(-c2c[n+]3c(n2-c2ccccc2)SCC3)cc1`: the IC50 was 7.4 µM.

For the molecule `CCc1ccc(/C=C2\SC(=S)N(CCC(=O)Nc3cc(C)on3)C2=O)cc1`, the IC50 was > 80 µM (inactive).

`Fc1ccc(C2=Nn3c(nnc3-c3n[nH]c4c3CCC4)SC2)cc1`: the IC50 is 16.7 µM.

Take `CC(C)(O)/C=C/C(=O)[C@](C)(O)C1[C@H](O)C[C@@]2(C)C3CC=C4C(C[C@H](O)[C@@H](O)C4(C)C)[C@]3(C)C(=O)C[C@]12C` (stereo not given in full): the IC50 is 65.8 µM (inactive).

Take `O=C(N/N=C/c1ccc(Cl)cc1Cl)c1ccc(-n2cnnn2)cc1`: the IC50 is > 80 µM (inactive).

For the molecule `O=C(CCl)Nc1ccccc1Sc1ccccc1`, the IC50 was 37.8 µM (inactive).

Turning to `O=C(Oc1cccc(/C=N/Nc2nc(N3CCOCC3)nc(N3CCOCC3)n2)c1)c1ccco1`, the IC50 is > 80 µM (inactive).

Take `COc1ccc(-c2csc3nc(-c4cccnc4)nc(N4CCC(C(N)=O)CC4)c23)cc1OC`: the IC50 was 9.06 µM.

Take `CN(C)c1cc[n+](Cc2c(Cl)cccc2Cl)cc1`: the IC50 was 9.88 µM.

On to `Cc1cc(OCC(=O)NC2CC2)c2c(C)c(C)c(=O)oc2c1`, for which the IC50 is > 80 µM (inactive).

For `C=CCOc1ccc(NC(=O)C(=O)NCCCn2ccnc2)cc1`, the IC50 was > 80 µM (inactive).

Take `CCCNC(=O)c1ccc(N2CCC3(CC2)CC(c2cccc(Br)c2)=NO3)c(NC(=O)c2ccc(Cl)c([N+](=O)[O-])c2)c1`: the IC50 was > 80 µM (inactive).

Turning to `COc1cc(-c2nc3n(n2)C(c2ccc(F)cc2)C2=C(CCCC2=O)N3)cc(OC)c1OC` (stereo not given), the IC50 is 30.4 µM (inactive).

Regarding `O=C(CCCN1C(=O)/C(=C/c2ccccc2Cl)SC1=S)Nc1cccnc1`, the IC50 was 28.7 µM (inactive).

`Cn1c(=O)cc(OCC(=O)N2CCC3(CC2)OCCO3)c2ccccc21`: the IC50 was > 80 µM (inactive).

Regarding `CCN(CC(=O)Nc1c(F)cccc1F)C(=O)c1cc(S(=O)(=O)N(CC)CC)ccc1N1CCCCC1`, the IC50 is 26.8 µM (inactive).

For `COc1ccc(S(=O)(=O)Nc2cc3c(C(C)=O)c(C)oc3c3ccccc23)cc1`, the IC50 was > 80 µM (inactive).

Consider `Cc1cc(C)c(CN2CCN(C(=O)Cn3cnc4c(NCc5ccccc5)ncnc43)CC2)c(C)c1`, for which the half-maximal inhibitory concentration (IC50) is 0.51 µM.

With `Cc1cc(OCC(=O)Nc2ccc(CCO)cc2)c2c(C)c(C)c(=O)oc2c1`, the IC50 was > 80 µM (inactive).

With `Cc1ccc(C(=O)CSc2nnc(COc3cc(C)cc(C)c3)o2)cc1`, the IC50 was 24.9 µM (inactive).

As to `CCn1c(=O)cc(OCC(=O)N(C)C2CCCCC2)c2ccccc21`, the IC50 is > 80 µM (inactive).

For `CC(=O)Nc1ccc(Nc2nc(-c3sc(NC(C)=O)nc3C)cs2)cc1`, the IC50 is 47.1 µM (inactive).

Consider `CN(C)S(=O)(=O)c1ccc(NC(=O)N2CCN(c3ccccc3)CC2)cc1`, for which the IC50 is > 80 µM (inactive).

For the molecule `CCOc1ccc(S(=O)(=O)NCc2ccncc2)cc1NC(=O)c1ccccc1`, the IC50 was 1.37 µM.

Regarding `COc1ccc(-c2ccc(OC)c([C@H]3[C@H]4C=CC[C@@H](C)[C@@H]4C(=O)N3Cc3ccccc3)c2)cc1`, the IC50 was 55.5 µM (inactive).

The term IC50 denotes the concentration that inhibits the measured activity by half.
